Like-named read-outs stand apart in the source and are kept apart here.
Key:
Test in all cases: biochemical
[1] = target: T1, panel of 374 wild-type kinases (Homo sapiens, UniProt Q8TD08); conditions: read-out: % Enzyme Activity (relative to DMSO controls), ERK7/MAPK15
T1 construct: purchased Reaction Biology Corporation
T1 sequence (Q8TD08 1-544): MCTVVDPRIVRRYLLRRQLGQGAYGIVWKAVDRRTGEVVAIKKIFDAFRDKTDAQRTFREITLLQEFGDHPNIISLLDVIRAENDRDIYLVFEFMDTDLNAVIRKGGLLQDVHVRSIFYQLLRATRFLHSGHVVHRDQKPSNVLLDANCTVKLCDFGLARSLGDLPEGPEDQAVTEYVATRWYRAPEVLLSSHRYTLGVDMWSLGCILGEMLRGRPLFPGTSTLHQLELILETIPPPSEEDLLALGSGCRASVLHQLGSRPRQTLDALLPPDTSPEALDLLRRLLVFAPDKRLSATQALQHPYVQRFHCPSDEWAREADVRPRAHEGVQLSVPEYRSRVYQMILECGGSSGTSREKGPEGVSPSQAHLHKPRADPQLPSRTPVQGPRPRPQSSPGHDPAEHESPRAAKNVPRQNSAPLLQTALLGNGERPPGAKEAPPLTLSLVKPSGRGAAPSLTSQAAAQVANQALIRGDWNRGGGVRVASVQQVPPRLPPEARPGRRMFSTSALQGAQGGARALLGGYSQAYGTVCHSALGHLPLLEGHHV

[2] = target: T2, panel of 374 wild-type kinases (Homo sapiens, UniProt P54762); conditions: read-out: % Enzyme Activity (relative to DMSO controls), EPHB1
T2 construct: purchased Reaction Biology Corporation
T2 sequence (P54762 18-984): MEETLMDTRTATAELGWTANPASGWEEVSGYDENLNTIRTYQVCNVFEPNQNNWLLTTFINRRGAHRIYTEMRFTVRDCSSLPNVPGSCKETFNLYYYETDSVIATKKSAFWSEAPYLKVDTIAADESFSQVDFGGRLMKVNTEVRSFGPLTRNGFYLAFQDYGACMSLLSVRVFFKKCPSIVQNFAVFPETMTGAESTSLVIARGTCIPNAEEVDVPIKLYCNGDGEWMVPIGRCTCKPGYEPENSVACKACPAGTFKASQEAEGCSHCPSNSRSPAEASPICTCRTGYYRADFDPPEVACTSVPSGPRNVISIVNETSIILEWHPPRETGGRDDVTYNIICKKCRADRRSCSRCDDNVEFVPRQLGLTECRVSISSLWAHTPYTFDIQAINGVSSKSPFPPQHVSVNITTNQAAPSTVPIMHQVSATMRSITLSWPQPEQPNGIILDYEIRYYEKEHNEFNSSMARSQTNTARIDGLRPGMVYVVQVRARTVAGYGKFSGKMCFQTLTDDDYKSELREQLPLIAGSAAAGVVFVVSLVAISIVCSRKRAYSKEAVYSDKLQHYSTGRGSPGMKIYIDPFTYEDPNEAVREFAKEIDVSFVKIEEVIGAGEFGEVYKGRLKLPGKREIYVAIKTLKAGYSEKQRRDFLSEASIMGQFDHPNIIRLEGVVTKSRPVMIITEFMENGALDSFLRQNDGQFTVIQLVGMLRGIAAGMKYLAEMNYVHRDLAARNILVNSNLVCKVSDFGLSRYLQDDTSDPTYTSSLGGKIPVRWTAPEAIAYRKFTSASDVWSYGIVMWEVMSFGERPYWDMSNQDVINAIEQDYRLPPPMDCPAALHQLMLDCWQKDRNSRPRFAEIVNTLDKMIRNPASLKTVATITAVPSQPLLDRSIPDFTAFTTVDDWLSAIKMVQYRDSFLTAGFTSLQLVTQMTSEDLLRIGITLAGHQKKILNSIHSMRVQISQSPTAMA

[3] = target: T3, panel of 374 wild-type kinases (Homo sapiens, UniProt Q9Y6E0); conditions: read-out: % Enzyme Activity (relative to DMSO controls), MST3/STK24
T3 construct: purchased Reaction Biology Corporation

[4] = target: T4, panel of 374 wild-type kinases (Homo sapiens, UniProt Q00526)
T4 construct: purchased Reaction Biology Corporation

[5] = target: T5, panel of 374 wild-type kinases (Homo sapiens, UniProt O15075); conditions: read-out: % Enzyme Activity (relative to DMSO controls), DCAMKL1
T5 construct: purchased Reaction Biology Corporation
T5 sequence (O15075 1-740): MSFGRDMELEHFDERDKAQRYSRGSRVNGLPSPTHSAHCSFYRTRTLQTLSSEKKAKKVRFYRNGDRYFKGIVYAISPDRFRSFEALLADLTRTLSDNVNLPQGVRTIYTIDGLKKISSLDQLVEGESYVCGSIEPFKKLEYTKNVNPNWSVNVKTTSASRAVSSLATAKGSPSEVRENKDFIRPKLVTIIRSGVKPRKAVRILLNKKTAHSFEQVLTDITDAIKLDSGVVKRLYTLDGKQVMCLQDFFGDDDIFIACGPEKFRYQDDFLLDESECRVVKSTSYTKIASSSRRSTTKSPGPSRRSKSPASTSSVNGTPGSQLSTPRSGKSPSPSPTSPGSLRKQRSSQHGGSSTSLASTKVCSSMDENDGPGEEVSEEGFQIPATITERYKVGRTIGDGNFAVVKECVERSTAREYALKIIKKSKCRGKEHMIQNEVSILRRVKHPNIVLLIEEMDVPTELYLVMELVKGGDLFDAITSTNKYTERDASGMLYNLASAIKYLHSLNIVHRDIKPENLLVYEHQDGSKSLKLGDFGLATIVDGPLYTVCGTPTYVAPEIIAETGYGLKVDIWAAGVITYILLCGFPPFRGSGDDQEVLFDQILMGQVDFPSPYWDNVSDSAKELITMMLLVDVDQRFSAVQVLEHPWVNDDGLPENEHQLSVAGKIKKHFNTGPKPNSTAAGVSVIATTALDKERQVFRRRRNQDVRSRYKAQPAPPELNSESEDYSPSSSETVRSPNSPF

[6] = target: T6, panel of 374 wild-type kinases (Homo sapiens, UniProt Q9UQB9); conditions: read-out: % Enzyme Activity (relative to DMSO controls), Aurora C
T6 construct: purchased Reaction Biology Corporation
T6 sequence (Q9UQB9 1-309): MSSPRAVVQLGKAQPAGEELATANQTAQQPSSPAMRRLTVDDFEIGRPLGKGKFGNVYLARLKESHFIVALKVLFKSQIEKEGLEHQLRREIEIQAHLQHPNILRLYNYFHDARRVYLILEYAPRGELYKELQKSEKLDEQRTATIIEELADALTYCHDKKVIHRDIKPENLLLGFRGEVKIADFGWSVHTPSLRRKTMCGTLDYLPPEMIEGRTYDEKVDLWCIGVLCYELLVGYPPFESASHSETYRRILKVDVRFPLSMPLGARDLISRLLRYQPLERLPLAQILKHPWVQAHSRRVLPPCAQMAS

[7] = read-out: % Enzyme Activity (relative to DMSO controls), CDK3/cyclin E2
[8] = read-out: % Enzyme Activity (relative to DMSO controls), CDK3/cyclin E

T3 sequence (Q9Y6E0 whole entry): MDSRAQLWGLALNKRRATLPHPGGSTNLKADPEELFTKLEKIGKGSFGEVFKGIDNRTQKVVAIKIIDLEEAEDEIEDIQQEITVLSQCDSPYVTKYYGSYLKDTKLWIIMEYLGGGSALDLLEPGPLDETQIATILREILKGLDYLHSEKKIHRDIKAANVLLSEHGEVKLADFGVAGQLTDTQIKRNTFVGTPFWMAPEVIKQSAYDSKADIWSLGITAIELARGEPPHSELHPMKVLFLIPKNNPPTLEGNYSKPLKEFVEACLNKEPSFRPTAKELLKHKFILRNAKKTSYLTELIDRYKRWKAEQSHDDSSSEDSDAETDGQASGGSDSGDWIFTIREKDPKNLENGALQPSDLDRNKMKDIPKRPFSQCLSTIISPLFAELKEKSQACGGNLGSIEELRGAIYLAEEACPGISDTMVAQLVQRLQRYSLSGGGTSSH
T4 sequence (Q00526 whole entry): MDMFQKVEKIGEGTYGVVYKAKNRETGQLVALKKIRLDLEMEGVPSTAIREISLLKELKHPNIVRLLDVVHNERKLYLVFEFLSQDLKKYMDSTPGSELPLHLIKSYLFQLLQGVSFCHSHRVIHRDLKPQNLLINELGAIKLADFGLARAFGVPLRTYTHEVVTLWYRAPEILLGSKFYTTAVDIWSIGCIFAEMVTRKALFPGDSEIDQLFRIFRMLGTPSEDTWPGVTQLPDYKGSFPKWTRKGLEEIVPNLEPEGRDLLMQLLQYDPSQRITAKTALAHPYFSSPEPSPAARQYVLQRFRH

SMILES | remaining activity at 5 µM [1] | remaining activity at 5 µM [2] | remaining activity at 5 µM [3] | remaining activity at 5 µM [4, 7] | remaining activity at 5 µM [4, 8] | remaining activity at 5 µM [5] | remaining activity at 5 µM [6] | remaining activity at 10 µM ([1]; 10 uM) | remaining activity at 10 µM ([2]; 10 uM) | remaining activity at 10 µM ([3]; 10 uM) | remaining activity at 10 µM [4, 7] | remaining activity at 10 µM [4, 8] | remaining activity at 10 µM ([5]; 10 uM) | remaining activity at 10 µM ([6]; 10 uM)
O=C(Nc1cnn(-c2csc(C(=O)NC3COC3)c2)c1)Nc1ccccc1Cl [Compound 17, 4-(4-(3-(2-chlorophenyl)ureido)-1H-pyrazol-1-yl)-N-(oxetan-3-yl)thiophene-2-carboxamide] | 140% | 100% | 113% | 95.8% | 107% | 99.2% | 104% | – | – | – | – | – | – | –
O=C(Nc1cnn(-c2csc(C(=O)NC3COC3)c2)c1)Nc1c(F)cccc1Cl [Compound 25, 4-(4-(3-(2-chloro-6-fluorophenyl)ureido)-1H-pyrazol-1-yl)-N-(oxetan-3-yl)thiophene-2-carboxamide] | 108% | 96.1% | 81.6% | 109% | 92.2% | 84.2% | 58.5% | – | – | – | – | – | – | –
Cc1sc(C(=O)NC2COC2)cc1-n1cc(NC(=O)Nc2c(F)cccc2Cl)cn1 [Compound 27, 4-(4-(3-(2-chloro-6-fluorophenyl)ureido)-1H-pyrazol-1-yl)-5-methyl-N-(oxetan-3-yl)thiophene-2-carboxamide] | – | – | – | – | – | – | – | 103% | 100% | 67.3% | 103% | 91.2% | 67.2% | 104%
